These results are taken from ChEMBL document CHEMBL4017441, “Mitigating the inhibition of human bile salt export pump by drugs: opportunities provided by physicochemical property modulation, in silico modeling, and structural modification” (Drug Metab Dispos, 2012).

One may read the IC50 as the point on the concentration scale where inhibition reaches its midpoint.

SMILES strings stand for the structures. Where only a bound is given, the exact number is not on record here.

This assay concerns the target Bile salt export pump (Homo sapiens, UniProt O95342). In kind it is ADME.
Turning to `NC(CO)C(=O)NNCc1ccc(O)c(O)c1O` (stereo unspecified) [BENSERAZIDE], the IC50 came to 117 µM.
The value for `O=C(O)c1ccc(NC(=O)[C@H](Cc2ccc(O)cc2)NC(=O)c2ccccc2)cc1` [BENTIROMIDE] was 235 µM; that for `CCOC(=O)c1ccc(N)cc1` [BENZOCAINE] was over 1000 µM.
The value for `CCCCNc1ccc(C(=O)OCCOCCOCCOCCOCCOCCOCCOCCOCCOC)cc1` [BENZONATATE] was under 10 µM; that for `O=C(Nc1ccc(C(=O)O)c(O)c1)c1ccccc1` [BENZOYLPAS] was over 1000 µM.
Regarding `NS(=O)(=O)c1cc2c(cc1Cl)N=C(CSCc1ccccc1)NS2(=O)=O` [BENZTHIAZIDE], the IC50 is 57.4 µM.
As to `CC(C)COCC(CN(Cc1ccccc1)c1ccccc1)N1CCCC1` (stereo unspecified) [BEPRIDIL], the concentration for half-maximal inhibition (IC50) is under 16.5 µM.
The value for `CC1=C(/C=C/C(C)=C/C=C/C(C)=C/C=C/C=C(C)/C=C/C=C(C)/C=C/C2=C(C)CCCC2(C)C)C(C)(C)CCC1` [BETA CAROTENE] was under 10 µM.
For `C[N+](C)(C)CC(=O)O` [BETAINE], the half-inhibitory concentration (IC50) is over 1000 µM.
In the case of `CC(C)NCC(O)COc1ccc(CCOCC2CC2)cc1` (stereo unspecified) [BETAXOLOL], the IC50 is over 1000 µM.
The value for `CC(C[N+](C)(C)C)OC(N)=O` (stereo unspecified) [BETHANECHOL] was over 1000 µM; that for `CC(C)(Oc1ccc(CCNC(=O)c2ccc(Cl)cc2)cc1)C(=O)O` [BEZAFIBRATE] was 181 µM.
The value for `CC(=O)Oc1ccc(C(c2ccc(OC(C)=O)cc2)c2ccccn2)cc1` [BISACODYL] was 56.4 µM; that for `COc1ccccc1Oc1c(NS(=O)(=O)c2ccc(C(C)(C)C)cc2)nc(-c2ncccn2)nc1OCCO` [BOSENTAN] was under 25.3 µM.
With `CC[N+](C)(C)Cc1ccccc1Br` [BRETYLIUM], the IC50 is over 1000 µM.
For the molecule `CN(Cc1cc(Br)cc(Br)c1N)C1CCCCC1` [BROMHEXINE], the IC50 was 20.3 µM.
Take `CCCCNc1cc(C(=O)O)cc(S(N)(=O)=O)c1Oc1ccccc1` [BUMETANIDE]: the IC50 was found to be 526 µM.
With `CC(NC(C)(C)C)C(=O)c1cccc(Cl)c1` (stereo unspecified) [BUPROPION], the IC50 was over 1000 µM.
For the molecule `O=C1CC2(CCCC2)CC(=O)N1CCCCN1CCN(c2ncccn2)CC1` [BUSPIRONE], the IC50 turned out to be 59.6 µM.
For the molecule `CS(=O)(=O)OCCCCOS(C)(=O)=O` [BUSULFAN], the half-maximal inhibitory concentration (IC50) was over 1000 µM.
On to `CCCCN(CCCC)CCCOC(=O)c1ccc(N)cc1` [BUTACAINE], for which the IC50 is 488 µM.
For the molecule `CCCCOC(=O)c1ccc(N)cc1` [BUTAMBEN], the IC50 was 181 µM.
For the molecule `CSCCNc1nc(SCCC(F)(F)F)nc2c1ncn2[C@@H]1O[C@H](COP(=O)(O)OP(=O)(O)C(Cl)(Cl)P(=O)(O)O)[C@@H](O)[C@H]1O` [CANGRELOR], the IC50 is over 1000 µM.
As for `COc1cc(C(=O)NCCCCCC(=O)O)cc(OC)c1OC` [CAPOBENIC ACID], the IC50 was over 1000 µM.
`COc1cc(CNC(=O)CCCC/C=C/C(C)C)ccc1O` [CAPSAICIN]: the half-maximal inhibitory concentration (IC50) was under 10 µM.
The value for `COC(=O)N/N=C/c1c[n+]([O-])c2ccccc2[n+]1[O-]` [CARBADOX] was over 940 µM.
Consider `C[N+](C)(C)CCOC(N)=O` [CARBAMOYLCHOLINE], for which the 50% inhibitory concentration (IC50) was over 1000 µM.
For `C[C@@](Cc1ccc(O)c(O)c1)(NN)C(=O)O` [CARBIDOPA ANHYDROUS], the IC50 was over 1000 µM.
With `CCOC(=O)n1ccn(C)c1=S` [CARBIMAZOLE], the 50% inhibitory concentration (IC50) was over 1000 µM.
The value for `CN(C)CCOC(c1ccc(Cl)cc1)c1ccccn1` (stereo unspecified) [CARBINOXAMINE] was over 1000 µM; that for `O=NN(CCCl)C(=O)NCCCl` [CARMUSTINE] was 97.2 µM; that for `C[N+](C)(C)CC(O)CC(=O)[O-]` (stereo unspecified) [CARNITINE] was over 1000 µM.
Turning to `CC(C)(C)NCC(O)COc1cccc2c1CCC(=O)N2` (stereo unspecified) [CARTEOLOL], the concentration for half-maximal inhibition (IC50) is over 1000 µM.
As for `C=CC1=C(C(=O)O)N2C(=O)[C@@H](NC(=O)/C(=N\OCC(=O)O)c3csc(N)n3)[C@H]2SC1` [CEFIXIME], the concentration for half-maximal inhibition (IC50) was over 1000 µM.
On to `CCN(CC)CCOC(=O)c1ccc(N)cc1Cl` [CHLOROPROCAINE], for which the 50% inhibitory concentration (IC50) is over 1000 µM.
As to `Cc1cc(O)cc(C)c1Cl` [CHLOROXYLENOL], the IC50 came out at 130 µM.
On to `CN(C)CCCN1c2ccccc2Sc2ccc(Cl)cc21` [CHLORPROMAZINE], for which the half-inhibitory concentration (IC50) came to 91 µM.
The value for `CN(C)CC/C=C1/c2ccccc2Sc2ccc(Cl)cc21` [CHLORPROTHIXENE] was 27.5 µM; that for `O=C(O)c1cc(-c2ccccc2)nc2ccccc12` [CINCHOPHEN] was over 814 µM; that for `CCCC(=O)OCOC(=O)C1=C(C)NC(C)=C(C(=O)OC)C1c1cccc(Cl)c1Cl` (stereo unspecified) [CLEVIDIPINE] was 36.4 µM.
On to `CCN(CC)CCOc1ccc(C(=C(Cl)c2ccccc2)c2ccccc2)cc1` [CLOMIPHENE], for which the IC50 is under 10 µM.
The value for `Cc1onc(-c2ccccc2Cl)c1C(=O)N[C@@H]1C(=O)N2[C@@H]1SC(C)(C)[C@@H]2C(=O)O` [CLOXACILLIN] was 41.6 µM; that for `Oc1ccc(Cl)c2cccnc12` [CLOXYQUIN] was 357 µM; that for `CN1CCN(C2=Nc3cc(Cl)ccc3Nc3ccccc32)CC1` [CLOZAPINE] was 75.1 µM.
`C[C@]12CCC(=O)C=C1CC[C@@H]1[C@@H]2C(=O)C[C@@]2(C)[C@H]1CC[C@]2(O)C(=O)CO` [CORTISONE]: the IC50 came out at 108 µM.
Consider `O=c1ccc2ccccc2o1` [COUMARIN], for which the concentration for half-maximal inhibition (IC50) was over 1000 µM.
On to `O=C(NO)C1(CS(=O)(=O)c2ccc(Oc3ccc(Cl)cc3)cc2)CCOCC1` [CTS-1027], for which the IC50 worked out at 23.4 µM.
For `CC1CC(OC(=O)C(O)c2ccccc2)CC(C)(C)C1` (stereo unspecified) [CYCLANDELATE], the IC50 was 15 µM.
For the molecule `CN(C)CCC=C1c2ccccc2C=Cc2ccccc21` [CYCLOBENZAPRINE], the IC50 was 107 µM.
Consider `NCCS` [CYSTEAMINE], for which the 50% inhibitory concentration (IC50) is 331 µM.
Regarding `CN(C)/N=N/c1[nH]cnc1C(N)=O` [DACARBAZINE], the IC50 was over 1000 µM.
For the molecule `C#C[C@]1(O)CC[C@H]2[C@@H]3CCC4=Cc5oncc5C[C@]4(C)[C@H]3CC[C@@]21C` [DANAZOL], the IC50 is under 10 µM.
For the molecule `O=C1CN(/N=C/c2ccc(-c3ccc([N+](=O)[O-])cc3)o2)C(O)=N1` [DANTROLENE], the half-inhibitory concentration (IC50) was 145 µM.
As for `Cc1nc(Nc2ncc(C(=O)Nc3c(C)cccc3Cl)s2)cc(N2CCN(CCO)CC2)n1` [DASATINIB], the IC50 was under 10 µM.
As for `O=C(O)c1ccc(OCCn2ccnc2)cc1` [DAZOXIBEN], the IC50 is over 1000 µM.
Consider `N=C(N)N1CCc2ccccc2C1` [DEBRISOQUIN], for which the IC50 is over 952 µM.
For `COc1ccc(-c2cc(C(F)F)nn2-c2ccc(S(N)(=O)=O)cc2)cc1F` [DERACOXIB], the IC50 came out at 20.2 µM.
For `CNCCCN1c2ccccc2CCc2ccccc21` [DESIPRAMINE], the IC50 is 150 µM.
The value for `C[C@@H]1C[C@H]2[C@@H]3CCC4=CC(=O)C=C[C@]4(C)[C@@]3(F)[C@@H](O)C[C@]2(C)[C@H]1C(=O)CO` [DESOXIMETASONE] was 16.4 µM; that for `C[C@]12CC[C@H]3[C@@H](CCC4=CC(=O)CC[C@@]43C)[C@@H]1CC[C@@H]2C(=O)CO` [DESOXYCORTICOSTERONE] was 17.1 µM.
Consider `CN1C(=O)[C@@H](NC(=O)c2cc3ccccc3[nH]2)N=C(c2ccccc2)c2ccccc21` [DEVAZEPIDE], for which the IC50 is under 10 µM.
In the case of `C[C@@H]1C[C@H]2[C@@H]3CCC4=CC(=O)C=C[C@]4(C)[C@@]3(F)[C@@H](O)C[C@]2(C)[C@@]1(O)C(=O)CO` [DEXAMETHASONE], the half-inhibitory concentration (IC50) is 102 µM.
On to `CC(C)(CO)[C@@H](O)C(=O)NCCCO` [DEXPANTHENOL], for which the IC50 was over 1000 µM.
Consider `CC1=NS(=O)(=O)c2cc(Cl)ccc2N1` [DIAZOXIDE], for which the concentration for half-maximal inhibition (IC50) was over 1000 µM.
As to `c1ccc2c(c1)sc1ccccc12` [DIBENZOTHIOPHENE], the concentration for half-maximal inhibition (IC50) was 388 µM.
As for `CCCCOc1cc(C(=O)NCCN(CC)CC)c2ccccc2n1` [DIBUCAINE], the IC50 turned out to be 41.7 µM.
For `NS(=O)(=O)c1cc(Cl)c(Cl)c(S(N)(=O)=O)c1` [DICHLORPHENAMIDE], the 50% inhibitory concentration (IC50) is over 919 µM.
As for `O=C(O)Cc1ccccc1Nc1c(Cl)cccc1Cl` [DICLOFENAC], the IC50 was 65 µM.
For `Cc1onc(-c2c(Cl)cccc2Cl)c1C(=O)N[C@@H]1C(=O)N2[C@@H]1SC(C)(C)[C@@H]2C(=O)O` [DICLOXACILLIN], the concentration for half-maximal inhibition (IC50) was under 10 µM.
Turning to `O=c1oc2ccccc2c(O)c1Cc1c(O)c2ccccc2oc1=O` [DICUMAROL], the IC50 was 39.9 µM.
Take `O=C1c2ccccc2CN2C(=O)c3ccccc3CN12` [DIFTALONE]: the half-maximal inhibitory concentration (IC50) is over 1000 µM.
The value for `C[C@H]1O[C@@H](O[C@H]2[C@@H](O)C[C@H](O[C@H]3[C@@H](O)C[C@H](O[C@H]4CC[C@@]5(C)[C@H](CC[C@@H]6[C@@H]5CC[C@]5(C)[C@@H](C7=CC(=O)OC7)CC[C@]65O)C4)O[C@@H]3C)O[C@@H]2C)C[C@H](O)[C@@H]1O` [DIGITOXIN] was under 10 µM.
On to `CC1(C)OC(=O)NC1=O` [DIMETHADIONE], for which the concentration for half-maximal inhibition (IC50) was over 1000 µM.
Consider `CCCCc1cc2ccccc2c(OCCN(C)C)n1` [DIMETHISOQUIN], for which the half-maximal inhibitory concentration (IC50) was determined as 68.7 µM.
Regarding `CCCCC[C@H](O)/C=C/[C@H]1[C@H](O)CC(=O)[C@@H]1C/C=C\CCCC(=O)O` [DINOPROSTONE], the half-inhibitory concentration (IC50) was over 1000 µM.
For the molecule `CCN(CC)C(=S)S` [DITIOCARB], the IC50 amounted to 69.3 µM.
On to `CC(CCc1ccc(O)cc1)NCCc1ccc(O)c(O)c1` (stereo unspecified) [DOBUTAMINE], for which the IC50 was over 1000 µM.
On to `CCCCCCCCCCCCCCCCCCCCCCO` [DOCOSANOL], for which the IC50 was over 1000 µM.
`CN(CCOc1ccc(NS(C)(=O)=O)cc1)CCc1ccc(NS(C)(=O)=O)cc1` [DOFETILIDE]: the IC50 worked out at 708 µM.
Consider `COc1cc2c(cc1OC)C(=O)C(CC1CCN(Cc3ccccc3)CC1)C2` (stereo unspecified) [DONEPEZIL], for which the 50% inhibitory concentration (IC50) came out at 146 µM.
On to `Oc1ccc(CCNCCCCCCNCCc2ccccc2)cc1O` [DOPEXAMINE], for which the IC50 is over 1000 µM.
The value for `CN(C)CCOC(C)(c1ccccc1)c1ccccn1` (stereo unspecified) [DOXYLAMINE] was over 1000 µM.
The value for `O=C(CCCN1CC=C(n2c(=O)[nH]c3ccccc32)CC1)c1ccc(F)cc1` [DROPERIDOL] was under 10 µM.
For the molecule `CCCCOc1ccc(C(=O)CCN2CCCCC2)cc1` [DYCLONINE], the concentration for half-maximal inhibition (IC50) came to 275 µM.
In the case of `Cn1c(=O)c2c(ncn2CC(O)CO)n(C)c1=O` (stereo unspecified) [DYPHYLLINE], the IC50 was over 1000 µM.
Consider `O=c1c2ccccc2[se]n1-c1ccccc1` [EBSELEN], for which the IC50 is under 10 µM.
